Consider 4 compounds from patent US20090197867A1, “ENANTIOMERICALLY ENRICHED IMIDAZOAZEPINONE COMPOUNDS” (priority 2007, published 2009).

The test system of one test is CIA mouse. Nature of the test: Suppression of arthritis development in CIA (active immunization). The test is classed as in vivo. Conditions: DBA1/J mice, oral dosing once daily, read-out: Arthritis Model Approx ED50, Active Immunization (CIA mouse). From the text: Suppression of arthritis development in CIA. DBA1/J mice were immunized with bCII/CFA at day 0 then boosted at day 21 with bCII/IFA. Arthritis development was monitored over the course of study. The arthritis score is as follows: 0=normal paw, score of 1=1-2 digit inflamed paws; score of 2=3 digits or 1-2 digit+wrist or ankle inflamed, score of 3=hand+more than 2 digits inflamed; and score of 4=multiple digits (3-4)+important wrist or ankle inflammation.
(A) Partial therapeutic evaluation of compounds. Active compound was given by oral dosing once daily at the dose indicated from day 20 after induction of antibodies to collagen II but before disease development. (B) Full therapeutic evaluation of compound. Active compound was given after disease was developed (from day 7 after the second immunization). (C) X-ray analysis of mouse paws from full therapeutic CIA study. X-ray score is the index of measurement of combination of osteopenia, bone erosion and new bone formation. (D) Representative X-ray radiographs.

For a further test, the system named is CAIA mouse. Nature of the test: Suppression of arthritis development in CAIA (passive immunization). The test is classed as in vivo. The following applies: BALB/c mice, once daily PO day 0 to day 7. Here is the method:
Suppression of arthritis development in CAIA. BALB/c mice were injected i.v. with 1 mg of anti-type II collagen antibody at day 0, and 3 days later 25 μg of LPS was injected i.p. with active compound and methotrexate (MTX) was given once daily PO from day 0 to day 7. Arthritis score and body weight was monitored over the course of study.

As to `CCN1C(=O)N2Cc3cc(OC)cc(OC)c3[C@@H](C)C=C2C12CCN(Cc1cc(C)nn1C)CC2` [ER-819973-01], the ED50 with CIA mouse fell in the range of 3 to 10 mg/kg.

For `CCN1C(=O)N2Cc3cc(OC)cc(OC)c3[C@@H](C)C=C2C12CCN(Cc1cccn1C)CC2` [ER-819924-01], the ED50 in the test with CIA mouse fell in the range of 3 to 10 mg/kg.

As to `CN(Cc1cnc2nc(N)nc(N)c2n1)c1ccc(C(=O)N[C@@H](CCC(=O)O)C(=O)O)cc1` [methotrexate, reference compound], in the test with CAIA mouse, the “activity in the CAIA model (arthritis score)” value is “not particularly active”.

As to `CCN1C(=O)N2Cc3cc(OC)cc(OC)c3[C@@H](C)C=C2C12CCN(Cc1cc(C)cc(C)c1)CC2` [ER-819762-01], the ED50 was 30 to 60 mg/kg in the test with CAIA mouse (Mus musculus, read-out: Arthritis Model Approx ED50, Passive Immunization (CAIA mouse)) and around 3 mg/kg in the test on CIA mouse.

A word on the ED50: it is the dose at which the effect has come halfway, by size or by number of responders.
